The structures appear in SMILES notation.

The first assay concerns HIV-IIIb (MT-4 cells). Description: Test A: Antiviral Assays in MT4 Cells. The assay is classed as cell-based. The settings on record: Human immunodeficiency virus 1, IIIB, MT4, 120 h. As to the method: Test A: Antiviral Assays in MT4 Cells
For the antiviral assay utilizing MT-4 cells, 0.4 μL of […] test concentration of 3-fold serially diluted compound in DMSO was added to 40 μL of cell growth medium (RPMI 1640, 10% FBS, 1% penicilline/Streptomycine, 1% L-Glutamine, 1% HEPES) in each well of 384-well assay plates (10 concentrations) in quadruplicate.
1 mL aliquots of 2×10e6 MT-4 cells are pre-infected for 1 and 3 hrs respectively, @37° C. with 25 uL (MT4) or of either cell growth medium (mock-infected) or a fresh 1:250 dilution of an HIV-IIIb concentrated ABI stock (0.004 m.o.i. for MT4 cells). Infected and uninfected cells are diluted in cell growth medium and 35 uL of 2000 (for MT4) cells is added to each well of the assay plates.
Assay plates were then incubated in a 37° C. incubator. After 5 days of incubation, 25 μl of 2× concentrated CellTiter-Glo™ Reagent (catalog # G7573, Promega Biosciences, Inc., Madison, Wis.) was added to each well of the assay plate. Cell lysis was carried out by incubating at room temperature for 2-3 min and then chemiluminescence was read using the Envision reader (PerkinElmer). […]
With `Cc1cc2nc(N(C)C)sc2c(-c2ccc3c4c(ccnc24)CCO3)c1[C@H](OC(C)(C)C)C(=O)O` (atropisomer, axis not shown) [Compound 43, (S)-2-tert-butoxy-2-((R)-7-(2,3-dihydropyrano[4,3,2-de]quinolin-7-yl)-2-(dimethylamino)-5-methylbenzo[d]thiazol-6-yl)acetic acid], it took 5090 nM to reach a half-maximal effect (EC50).

The assay is the same for the next values; noted with them: Human immunodeficiency virus 1, IIIB, MT4, 120 h, MT-4 cells infected with HIV-IIIb (0.004 m.o.i.), 5 days incubation, CellTiter-Glo readout; read-out: EC50.
Turning to `Cc1cc2nc(C(=O)O)sc2c(-c2ccc3c4c(ccnc24)CCO3)c1[C@H](OC(C)(C)C)C(=O)O` (atropisomer, axis not shown) [Compound 41], the EC50 was found to be 923 nM.

With `CCN(C)c1nc2cc(C)c([C@H](OC(C)(C)C)C(=O)O)c(-c3ccc4c5c(ccnc35)CCO4)c2s1` (atropisomer, axis not shown) [Compound 44, (S)-2-tert-butoxy-2-((S)-7-(2,3-dihydropyrano[4,3,2-de]quinolin-7-yl)-2-(ethyl(methyl)amino)-5-methylbenzo[d]thiazol-6-yl)acetic acid], the EC50 came to 18.7 nM.

Turning to `CCN(CC)c1nc2cc(C)c([C@H](OC(C)(C)C)C(=O)O)c(-c3ccc4c5c(ccnc35)CCO4)c2s1` (atropisomer, axis not shown) [Compound 45, (S)-2-tert-butoxy-2-((S)-2-(diethylamino)-7-(2,3-dihydropyrano[4,3,2-de]quinolin-7-yl)-5-methylbenzo[d]thiazol-6-yl)acetic acid], the EC50 was determined as 67 nM.

For `Cc1cc2nc(N(C)CC(=O)N(C)C)sc2c(-c2ccc3c4c(ccnc24)CCO3)c1[C@H](OC(C)(C)C)C(=O)O` (atropisomer, axis not shown) [Compound 64, (S)-2-tert-butoxy-2-((R)-7-(2,3-dihydropyrano[4,3,2-de]quinolin-7-yl)-2-((2-(dimethylamino)-2-oxoethyl)(methyl)amino)-5-methylbenzo[d]thiazol-6-yl)acetic acid], the EC50 is 53000 nM.

Regarding `COc1nc2cc(C)c([C@H](OC(C)(C)C)C(=O)O)c(-c3ccc4c5c(ccnc35)CCO4)c2s1` (atropisomer, axis not shown) [Compound 66, (S)-2-tert-butoxy-2-((S)-7-(2,3-dihydropyrano[4,3,2-de]quinolin-7-yl)-2-methoxy-5-methylbenzo[d]thiazol-6-yl)acetic acid], the EC50 came to 22.5 nM.

Regarding `Cc1cc2c(sc(=O)n2C)c(-c2ccc3c4c(ccnc24)CCO3)c1[C@H](OC(C)(C)C)C(=O)O` (atropisomer, axis not shown) [Compound 68, (S)-2-tert-butoxy-2-((S)-7-(2,3-dihydropyrano[4,3,2-de]quinolin-7-yl)-3,5-dimethyl-2-oxo-2,3-dihydrobenzo[d]thiazol-6-yl)acetic acid], the EC50 was 292 nM.

In the case of `Cc1cc2nc(OC(C)C)sc2c(-c2ccc3c4c(ccnc24)CCO3)c1[C@H](OC(C)(C)C)C(=O)O` (atropisomer, axis not shown) [Compound 70, (S)-2-tert-butoxy-2-((S)-7-(2,3-dihydropyrano[4,3,2-de]quinolin-7-yl)-2-isopropoxy-5-methylbenzo[d]thiazol-6-yl)acetic acid], the half-maximal effective concentration (EC50) turned out to be 80.8 nM.

As for `Cc1cc2c(sc(=O)n2Cc2ccccc2C(F)(F)F)c(-c2ccc3c4c(ccnc24)CCO3)c1[C@H](OC(C)(C)C)C(=O)O` (atropisomer, axis not shown) [Compound 71, (S)-2-tert-butoxy-2-((S)-7-(2,3-dihydropyrano[4,3,2-de]quinolin-7-yl)-5-methyl-2-oxo-3-(2-(trifluoromethyl)benzyl)-2,3-dihydrobenzo[d]thiazol-6-yl)acetic acid], the EC50 is 984 nM.

`Cc1cc2c(sc(=O)n2Cc2ccccc2)c(-c2ccc3c4c(ccnc24)CCO3)c1[C@H](OC(C)(C)C)C(=O)O` (atropisomer, axis not shown) [Compound 72, (S)-2-((S)-3-benzyl-7-(2,3-dihydropyrano[4,3,2-de]quinolin-7-yl)-5-methyl-2-oxo-2,3-dihydrobenzo[d]thiazol-6-yl)-2-tert-butoxyacetic acid]: the EC50 was 29.8 nM.

Consider `Cc1cc2c(sc(=O)n2Cc2cccc(C(F)(F)F)c2)c(-c2ccc3c4c(ccnc24)CCO3)c1[C@H](OC(C)(C)C)C(=O)O` (atropisomer, axis not shown) [Compound 73, (S)-2-tert-butoxy-2-((S)-7-(2,3-dihydropyrano[4,3,2-de]quinolin-7-yl)-5-methyl-2-oxo-3-(3-(trifluoromethyl)benzyl)-2,3-dihydrobenzo[d]thiazol-6-yl)acetic acid], for which the half-maximal effective concentration (EC50) amounted to 52.2 nM.

As to `Cc1cc2c(sc(=O)n2Cc2ccc(C(F)(F)F)cc2)c(-c2ccc3c4c(ccnc24)CCO3)c1[C@H](OC(C)(C)C)C(=O)O` (atropisomer, axis not shown) [Compound 74, (S)-2-tert-butoxy-2-((S)-7-(2,3-dihydropyrano[4,3,2-de]quinolin-7-yl)-5-methyl-2-oxo-3-(4-(trifluoromethyl)benzyl)-2,3-dihydrobenzo[d]thiazol-6-yl)acetic acid], the EC50 was 650 nM.

Still in this assay, the particulars now being: MT-4 cells infected with HIV-IIIb (0.004 m.o.i.), 5 days incubation, CellTiter-Glo readout; read-out: EC50.
Turning to `Cc1cc2nc(N(C)C(C)C)sc2c(-c2ccc3c4c(ccnc24)CCO3)c1[C@H](OC(C)(C)C)C(=O)O` (atropisomer, axis not shown) [Compound 46, (S)-2-tert-butoxy-2-((S)-7-(2,3-dihydropyrano[4,3,2-de]quinolin-7-yl)-2-(isopropyl(methyl)amino)-5-methylbenzo[d]thiazol-6-yl)acetic acid], the EC50 turned out to be 16.8 nM.

In the case of `Cc1cc2nc(N(C)C(C)C)sc2c(-c2ccc3c4c(ccnc24)CCO3)c1[C@H](OC(C)(C)C)C(=O)O` (atropisomer, axis not shown) [Compound 47, (S)-2-tert-butoxy-2-((R)-7-(2,3-dihydropyrano[4,3,2-de]quinolin-7-yl)-2-(isopropyl(methyl)amino)-5-methylbenzo[d]thiazol-6-yl)acetic acid], the 50% effective concentration (EC50) was 26500 nM.

`Cc1cc2nc(N(C)CC(C)C)sc2c(-c2ccc3c4c(ccnc24)CCO3)c1[C@H](OC(C)(C)C)C(=O)O` (atropisomer, axis not shown) [Compound 48, (S)-2-tert-butoxy-2-((S)-7-(2,3-dihydropyrano[4,3,2-de]quinolin-7-yl)-2-(isobutyl(methyl)amino)-5-methylbenzo[d]thiazol-6-yl)acetic acid]: the EC50 came to 67 nM.

Consider `Cc1cc2nc(N(C)CC(C)C)sc2c(-c2ccc3c4c(ccnc24)CCO3)c1[C@H](OC(C)(C)C)C(=O)O` (atropisomer, axis not shown) [Compound 49, (S)-2-tert-butoxy-2-((R)-7-(2,3-dihydropyrano[4,3,2-de]quinolin-7-yl)-2-(isobutyl(methyl)amino)-5-methylbenzo[d]thiazol-6-yl)acetic acid], for which the EC50 came to 13300 nM.

For `Cc1cc2nc(N(C)CC3OCCO3)sc2c(-c2ccc3c4c(ccnc24)CCO3)c1[C@H](OC(C)(C)C)C(=O)O` (atropisomer, axis not shown) [Compound 59, (S)-2-((S)-2-(((1,3-dioxolan-2-yl)methyl)(methyl)amino)-7-(2,3-dihydropyrano[4,3,2-de]quinolin-7-yl)-5-methylbenzo[d]thiazol-6-yl)-2-tert-butoxyacetic acid], the EC50 was 149 nM.

Take `Cc1cc2nc(N(C)CC3OCCO3)sc2c(-c2ccc3c4c(ccnc24)CCO3)c1[C@H](OC(C)(C)C)C(=O)O` (atropisomer, axis not shown) [Compound 60, (S)-2-((R)-2-(((1,3-dioxolan-2-yl)methyl)(methyl)amino)-7-(2,3-dihydropyrano[4,3,2-de]quinolin-7-yl)-5-methylbenzo[d]thiazol-6-yl)-2-tert-butoxyacetic acid]: the concentration giving a half-maximal response (EC50) amounted to 34500 nM.

Take `Cc1cc2nc(N(C)CCN(C)C)sc2c(-c2ccc3c4c(ccnc24)CCO3)c1[C@H](OC(C)(C)C)C(=O)O` (atropisomer, axis not shown) [Compound 61, (S)-2-tert-butoxy-2-((S)-7-(2,3-dihydropyrano[4,3,2-de]quinolin-7-yl)-2-((2-(dimethylamino)ethyl)(methyl)amino)-5-methylbenzo[d]thiazol-6-yl)acetic acid]: the EC50 worked out at 987 nM.

Turning to `Cc1cc2nc(N(C)CCN(C)C)sc2c(-c2ccc3c4c(ccnc24)CCO3)c1[C@H](OC(C)(C)C)C(=O)O` (atropisomer, axis not shown) [Compound 62, (S)-2-tert-butoxy-2-((R)-7-(2,3-dihydropyrano[4,3,2-de]quinolin-7-yl)-2-((2-(dimethylamino)ethyl)(methyl)amino)-5-methylbenzo[d]thiazol-6-yl)acetic acid], the concentration giving a half-maximal response (EC50) was determined as 4880 nM.

For the compound `Cc1cc2nc(C3=CCCC3)sc2c(-c2ccc3c4c(ccnc24)CCO3)c1[C@H](OC(C)(C)C)C(=O)O` (atropisomer, axis not shown) [Compound 78, (S)-2-tert-butoxy-2-((S)-2-cyclopentenyl-7-(2,3-dihydropyrano[4,3,2-de]quinolin-7-yl)-5-methylbenzo[d]thiazol-6-yl)acetic acid], the half-maximal effective concentration (EC50) came out at 726 nM.

`Cc1cc2nc(C3=CCCC3)sc2c(-c2ccc3c4c(ccnc24)CCO3)c1[C@H](OC(C)(C)C)C(=O)O` (atropisomer, axis not shown) [Compound 79, (S)-2-tert-butoxy-2-((R)-2-cyclopentenyl-7-(2,3-dihydropyrano[4,3,2-de]quinolin-7-yl)-5-methylbenzo[d]thiazol-6-yl)acetic acid]: the EC50 stood at 45900 nM.

Broadly, the EC50 is the concentration needed to bring the measured effect to its halfway point.

The record behind these values is US9879023B2, “Therapeutic compounds” (Gilead Sciences, Inc., priority 2011, dated 2018).
